Experimental findings from US20020028938A1, “Prostaglandin endoperoxide H synthase biosynthesis inhibitors” (priority 1997, published 2002) are described below.

Data set [1] addresses T1, recombinant human Cox-2 (r-hu Cox-2) (Homo sapiens, UniProt P35354).
T1 construct: made in house; host or cells: baculovirus/Sf9 insect cells (microsomes)
T1 sequence (P35354 18-604): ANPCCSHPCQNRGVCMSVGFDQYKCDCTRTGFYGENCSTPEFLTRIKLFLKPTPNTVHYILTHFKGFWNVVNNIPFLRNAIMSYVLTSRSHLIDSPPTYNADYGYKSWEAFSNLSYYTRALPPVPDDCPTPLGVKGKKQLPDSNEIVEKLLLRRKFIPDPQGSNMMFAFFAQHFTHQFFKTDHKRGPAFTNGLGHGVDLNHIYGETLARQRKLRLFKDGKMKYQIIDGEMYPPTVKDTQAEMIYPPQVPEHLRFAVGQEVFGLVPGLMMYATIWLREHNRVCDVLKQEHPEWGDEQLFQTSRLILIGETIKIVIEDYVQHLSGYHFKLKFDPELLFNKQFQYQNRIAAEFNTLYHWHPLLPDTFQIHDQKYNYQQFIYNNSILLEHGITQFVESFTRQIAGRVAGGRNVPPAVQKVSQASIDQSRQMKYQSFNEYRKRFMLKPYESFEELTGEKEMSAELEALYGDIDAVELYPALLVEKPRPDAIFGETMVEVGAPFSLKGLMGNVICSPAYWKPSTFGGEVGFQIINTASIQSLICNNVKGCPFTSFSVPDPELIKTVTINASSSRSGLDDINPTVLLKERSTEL
Briefly: Recombinant human PGHS-2 enzyme assay (RHUCX2). The following applies: for IC50: read-out: RHUCX2 IC50 (parenthetical value); for inhibition at 0.01 µM / inhibition at 0.1 µM / inhibition at 1 µM: read-out: RHUCX2 % Inh. at Dose. Format: biochemical. Summed up:
(§1)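 PGE2 formed with and without drug quantified by EIA against matrix-matched standards; percent inhibition relative to control mean, IC50 by linear regression.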

Data set [2] concerns the target T2, recombinant human Cox-1 (r-hu Cox1) (Homo sapiens, UniProt P23219).
T2 construct: made in house; host or cells: baculovirus/Sf9 insect cells (microsomes)
Description: Recombinant human PGHS-1 enzyme assay (RHUCX1). Format: biochemical. The following applies: for inhibition at 100 µM / inhibition at 10 µM: read-out: RHUCX1 % Inh. at Dose. In outline: as §1

The subject of data set [3] is air pouch prostaglandin biosynthesis (Cox-2). Description: Carrageenan induced air pouch prostaglandin biosynthesis model (CAP). The note with it: 3 mpk, rat; for inhibition in vivo at 3 mg/kg: 4 h, read-out: CAP % Inhib. @ 3 mpk. Format: in vivo, rat. The procedure:
To compare the mean responses of the treatment groups, analysis of variance was applied. Percent inhibition values were determined by comparing the individual treatment mean values to the mean of the control group. Linear regression was used to estimate IC50's/ED50's in appropriate assays.
Carrageenan induced air pouch prostaglandin biosynthesis model (CAP) Air pouches are formed in the backs of male Sprague Dawley rats by injecting 20 mL of sterile air on day 0. Three days later the pouch was reinflated with an additional 10 mL of sterile air. On day 7, 1 mL of saline containing 0.2 % lambda carrageenan (Sigma Chemical Co.) is injected into the pouch to induce the inflammatory reaction that is characterized by the release of prostaglandins. Test compounds are dosed at 0.1 to 10 mg/kg 30 minutes prior to carrageenan. Four hours after the carrageenan injection the pouch is lavaged and levels of prostaglandins are determined by enzyme immuno-assay using commercially available kits. […] Values for Cox-2 inhibition that are parenthetical indicate ED50 values.

Data set [4] deals with T3, human amnionic whole cell cyclooxygenase-2 (WISH cells) (Homo sapiens, UniProt P35354).
T3 construct: endogenous in cells; host or cells: human amnionic WISH cells, induced with IL-1beta
T3 sequence (P35354 18-604): T1 sequence (P35354 18-604)
Description: IL-1β induced PGE2 production in WISH cells. Format: cell-based. The following applies: for IC50: read-out: Wish IC50 (parenthetical value). In outline:
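Confluent (80%) WISH cells were stimulated with 5 ng/ml IL-1β in serum-free Neuman-Tytell medium, with or without test compound in DMSO (0.01% v/v). PGE2 in the culture medium was measured by EIA against standards prepared in the same medium, read by optical density.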

T2 sequence (P23219 24-599): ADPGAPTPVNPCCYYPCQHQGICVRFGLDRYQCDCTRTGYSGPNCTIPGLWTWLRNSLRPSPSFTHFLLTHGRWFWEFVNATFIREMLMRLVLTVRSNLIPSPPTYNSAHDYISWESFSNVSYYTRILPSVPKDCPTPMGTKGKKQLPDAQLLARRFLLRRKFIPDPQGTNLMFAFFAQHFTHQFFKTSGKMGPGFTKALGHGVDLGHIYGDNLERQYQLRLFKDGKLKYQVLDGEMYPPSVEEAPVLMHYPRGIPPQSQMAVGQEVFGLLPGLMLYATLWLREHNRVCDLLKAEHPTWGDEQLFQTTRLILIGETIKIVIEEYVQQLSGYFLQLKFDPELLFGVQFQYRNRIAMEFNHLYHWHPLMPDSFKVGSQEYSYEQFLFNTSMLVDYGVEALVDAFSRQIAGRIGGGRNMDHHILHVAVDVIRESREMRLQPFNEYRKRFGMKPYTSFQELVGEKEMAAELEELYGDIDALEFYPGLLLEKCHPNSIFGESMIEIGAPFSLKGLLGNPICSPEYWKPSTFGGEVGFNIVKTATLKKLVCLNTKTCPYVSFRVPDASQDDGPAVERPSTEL

The IC50 is the point on the concentration scale where inhibition reaches its midpoint. On to “2-(2,3,3-Trifluorophenyl)-4-(4-fluorophenyl)-5-[4-(aminosulfonyl)phenyl]-3(2H)-pyridazinone [Example 450]”, for which the “RHUCX2 % Inh. at Dose (μM)” value in data set [1] (0.01 μM) was 22 @ 0.01%; in data set [1] (0.1 μM) it was 40 @ 0.1%; in data set [1] (1 μM) it was 87 @ 1%. In addition, in data set [2] (100 μM), the “RHUCX1 % Inh. at Dose (μM)” value is listed as 29 @ 100%. The “CAP % Inhib. @ 3 mpk” value in data set [3] is listed as 86%. For the same molecule, in data set [4], the IC50 stood at 50 nM.

The melting point is the temperature, or range, at which the solid turns liquid. Regarding `CC(C)COc1c(-c2ccc(S(C)(=O)=O)c(F)c2)cnn(-c2ccc(F)c(Cl)c2)c1=O` [Example 205, 2-(3-Chloro-4-fluorophenyl)-4-(2-methylpropoxy)-5-[3-fluoro-4-(methylsulfonyl)phenyl]-3(2H)-pyridazinone], the melting point lay in the range of 142 to 144 °C. Moreover, in data set [3], the inhibition in vivo at 3 mg/kg is 54%.

Turning to `CS(=O)(=O)c1ccc(-c2cnn(-c3ccc(F)c(F)c3)c(=O)c2Cc2cccc(F)c2)cc1` [Example 243, 2-(3,4-Difluorophenyl)-4-(3-fluorobenzyl)-5-[4-(methylsulfonyl)phenyl]-3(2H)-pyridazinone], the melting point fell in the range of 161 to 163 °C. Also, in data set [3], the inhibition in vivo at 3 mg/kg was found to be 7%. Moreover, the IC50 in data set [4] was 30 nM.

As to `CS(=O)(=O)c1ccc(-c2cnn(-c3ccc(F)c(Cl)c3)c(=O)c2C2CCCCC2)cc1` [Example 246, 2-(3-Chloro-4-fluorophenyl)-4-cyclohexyl-5-[4-(methylsulfonl)phenyl]-3(2H)-pyridazinone], the half-inhibitory concentration (IC50) came out at 54 nM in data set [1] and 20 nM in data set [4]. Further, in data set [2] (100 μM), the inhibition at 100 µM was 0%. In addition, the inhibition in vivo at 3 mg/kg in data set [3] came to 48%.

Take `CC(C)CCc1c(-c2ccc(S(C)(=O)=O)cc2)cnn(-c2ccc(F)c(Cl)c2)c1=O` [Example 257, 2-(3-Chloro-4-fluorophenyl)-4-(3-methylbutyl)-5-[4-(methylsulfonyl)phenyl]-3(2H)-pyridazinone]: the melting point lay in the range of 55 to 58 °C. The IC50 in data set [1] came out at 40 nM. Besides, the inhibition at 100 µM in data set [2] (100 μM) is 0%. In addition, in data set [3], the inhibition in vivo at 3 mg/kg turned out to be 60%.

Molecule `CC(C)COc1c(-c2ccc(S(C)(=O)=O)cc2)cnn(-c2ccc(F)c(F)c2)c1=O` [Example 346, 2-(3,4-Difluorophenyl)-4-(2-methylpropoxy)-5-[4-(methylsulfonyl)phenyl]-3(2H)-pyridazinone] displayed a melting point of 116 to 117 °C. Further, in data set [1] (0.01 μM), the inhibition at 0.01 µM came to 48%. Moreover, the inhibition at 0.1 µM in data set [1] (0.1 μM) was determined as 76%. Besides, the inhibition at 1 µM in data set [1] (1 μM) is 94%. Moreover, the inhibition at 100 µM in data set [2] (100 μM) is 14%. Besides, in data set [3], the inhibition in vivo at 3 mg/kg was determined as 49.5%.

Molecule `CCC(C)CCOc1c(-c2ccc(S(C)(=O)=O)cc2)cnn(-c2ccc(F)c(F)c2)c1=O` (stereo not drawn) [Example 351, 2-(3,4-Difluorophenyl)-4-(3-methylpentyloxy)-5-[4-(methylsulfonyl)phenyl]-3(2H)-pyridazinone] returned a melting point of 100 to 102 °C. Also, the inhibition at 0.01 µM in data set [1] (0.01 μM) is 42%. For the same molecule, in data set [1] (0.1 μM), the inhibition at 0.1 µM was 63%. In addition, the inhibition at 1 µM in data set [1] (1 μM) turned out to be 91%. For the same molecule, the inhibition at 100 µM in data set [2] (100 μM) is 3%. Moreover, in data set [3], the inhibition in vivo at 3 mg/kg is 0%.

As for `COC(C)CCOc1c(-c2ccc(S(C)(=O)=O)cc2)cnn(-c2ccc(F)c(F)c2)c1=O` (stereo not drawn) [Example 353, 2-(3,4-Difluorophenyl)-4-[3-(methoxy)butoxy]-5-[4-(methylsulfonyl)phenyl]-3(2H)-pyridazinone], the melting point was in the range of 99 to 101 °C. Moreover, the 50% inhibitory concentration (IC50) in data set [1] worked out at 826 nM. Also, in data set [2] (100 μM), the inhibition at 100 µM was found to be 6%. Further, in data set [3], the inhibition in vivo at 3 mg/kg was determined as 0%.

As to `CC(C)CSc1c(-c2ccc(S(C)(=O)=O)cc2)cnn(-c2cccc(Cl)c2)c1=O` [Example 361, 2-(3-Chlorophenyl)-4-[2-(methylpropyl)thiol]-5-[4-(methylsulfonyl)phenyl]-3(2H)-pyridazinone], the IC50 in data set [1] was determined as 11 nM. Also, the inhibition at 100 µM in data set [2] (100 μM) amounted to 3%. The inhibition in vivo at 3 mg/kg in data set [3] stood at 65%.

On to `Cc1cc(-c2c(-c3ccc(S(N)(=O)=O)cc3)cnn(-c3ccc(F)cc3)c2=O)ccc1F` [Example 390], for which the “RHUCX2 % Inh. at Dose (μM)” value in data set [1] (0.1 μM) is 60 @ 0.1%; in data set [1] (1 μM) it was 72 @ 1%; in data set [1] (10 μM) it was 99 @ 10%. Besides, the “RHUCX1 % Inh. at Dose (μM)” value in data set [2] (1 μM) is 45 @ 1%; in data set [2] (10 μM), 88 @ 10%. The “CAP % Inhib. @ 3 mpk” value in data set [3] came out at 60%.

As for `CC(C)COc1c(-c2ccc(S(N)(=O)=O)cc2)cnn(-c2cccc(Cl)c2)c1=O` [Example 395, 2-(3-Chlorophenyl)-4-(2-methylpropoxy)-5-[4-(aminosulfonyl)phenyl]-3(2H)-pyridazinone], the melting point fell in the range of 80 to 85 °C. For the same molecule, the inhibition at 0.01 µM in data set [1] (0.01 μM) is 34%. In data set [1] (0.1 μM), the inhibition at 0.1 µM was determined as 77%. In addition, the inhibition at 1 µM in data set [1] (1 μM) came out at 93%. Moreover, in data set [2] (10 μM), the inhibition at 10 µM is 35%. For the same molecule, in data set [2] (100 μM), the inhibition at 100 µM stood at 91%. Besides, in data set [3], the inhibition in vivo at 3 mg/kg came to 71%.

`CC(C)CCc1c(-c2ccc(S(N)(=O)=O)cc2)cnn(-c2ccc(F)c(Cl)c2)c1=O` [Example 405, 2-(3-Chloro-4-fluorophenyl)-4-(3-methylbutyl)-5-[4-(aminosulfonyl)phenyl]-3(2H)-pyridazinone] showed a melting point of 154 to 156 °C. Moreover, the IC50 in data set [1] was 198 nM. Moreover, the inhibition at 10 µM in data set [2] (10 μM) came to 61%. In addition, the inhibition at 100 µM in data set [2] (100 μM) was found to be 90%. Further, in data set [3], the inhibition in vivo at 3 mg/kg came out at 53%.

With `NS(=O)(=O)c1ccc(-c2cnn(-c3ccc(F)c(F)c3)c(=O)c2Oc2ccc(F)cc2)cc1F` [Example 407], the melting point lay in the range of 224 to 226 °C. In data set [1], the half-maximal inhibitory concentration (IC50) was found to be 170 nM. Also, the inhibition at 100 µM in data set [2] (100 μM) came out at 32%. Besides, the inhibition in vivo at 3 mg/kg in data set [3] worked out at 61%.

Turning to `CS(=O)(=O)c1ccc(-c2cnn(-c3cccc(Cl)c3)c(=O)c2OCCC2CC2)cc1` [Example 419, 2-(3-Chlorophenyl)-4-(2-cyclopropane-1-ethoxy)-5-[4-(methylsulfonyl)phenyl]-3(2H)-pyridazinone], the melting point was in the range of 124 to 128 °C. Besides, in data set [1], the IC50 worked out at 100 nM. Also, the inhibition at 100 µM in data set [2] (100 μM) turned out to be 12%. Moreover, the inhibition in vivo at 3 mg/kg in data set [3] came out at 48%.

Molecule `C=C(C)CCOc1c(-c2ccc(S(C)(=O)=O)cc2)cnn(-c2cccc(Cl)c2)c1=O` [Example 427, 2-(3-Chlorophenyl)-4-(3-methyl-3-butenoxy)-5-[4-(methylsulfonyl)phenyl]-3(2H)-pyridazinone] came in with a melting point of 110 to 112 °C. Further, the inhibition in vivo at 3 mg/kg in data set [3] was 78%.

Consider `CC(C)(O)COc1c(-c2ccc(S(C)(=O)=O)cc2)cnn(-c2ccc(F)c(F)c2)c1=O` [Example 452, 2-(3,4-Difluorophenyl)-4-(2-hydroxy-2-methyl-1-propoxy)-5-[4-(methylsulfonyl)phenyl]-3(2H)-pyrridazinone], for which the “RHUCX2 % Inh. at Dose (μM)” value in data set [1] (1 μM) is 15 @ 1%. In addition, the “RHUCX1 % Inh. at Dose (μM)” value in data set [2] (100 μM) was 14 @ 100%. Also, in data set [3], the “CAP % Inhib. @ 3 mpk” value came out at 71%. Also, the results for the “Wish % Inhib. at Dose (μM)” value in data set [4] (0.1 μM) and in data set [4] (1 μM) were 1 @ 0.1% and 56 @ 1%, respectively.

Take `C[C@@H](CO)COc1c(-c2ccc(S(N)(=O)=O)cc2)cnn(-c2ccc(F)c(F)c2)c1=O` [Example 464, (S)-2-(3,4-Difluorophenyl)-4-(3-hydroxy-2-methyl-1-propoxy)-5-[4-(aminosulfonyl)phenyl]-3(2H)-pyridazinone]: the inhibition in vivo at 3 mg/kg in data set [3] came out at 70%.
